Assays:
Assay type in all cases: cell-based, Plasmodium falciparum
P. falciparum D6 = assay: Malaria SYBR Green Fluorescence Assay, D6 strain; conditions: for D6: SYBR Green Assay
P. falciparum W2 = assay: Malaria SYBR Green Fluorescence Assay, W2 strain; conditions: for W2: SYBR Green Assay
P. falciparum C235 = assay: Malaria SYBR Green Fluorescence Assay, C235 strain; conditions: for C235: SYBR Green Assay

Structure (SMILES)	D6 (P. falciparum D6)	W2 (P. falciparum W2)	C235 (P. falciparum C235)	D6 (SYBR Green Assay IC50) (P. falciparum D6)	W2 (SYBR Green Assay IC50) (P. falciparum W2)	C235 (SYBR Green Assay IC50) (P. falciparum C235)
Cc1ccc(-c2ccccc2-c2nc(NCCN3CCCC3)nc(C(Cl)(Cl)Cl)n2)cc1 [Cmpd 266]	654 ng/mL	474 ng/mL	530 ng/mL			
CCN(CC)CCNc1nc(-c2ccc(OC)cc2)nc(C(Cl)(Cl)Cl)n1 [Cmpd 268]	309 ng/mL	259 ng/mL	282 ng/mL			
COc1cccc(Cc2nc(N3CCCN(C)CC3)nc(C(Cl)(Cl)Cl)n2)c1 [Cmpd 269]	835 ng/mL	286 ng/mL	627 ng/mL			
CSc1ccc(-c2nc(NC(C)(C)CN)nc(C(Cl)(Cl)Cl)n2)cc1 [Cmpd 277]	406 ng/mL	364 ng/mL	312 ng/mL			
COc1ccc(-c2nc(NCCN3CCCC3)nc(C(Cl)(Cl)Cl)n2)c2ccccc12 [Cmpd 278]	35 ng/mL	17 ng/mL	48 ng/mL			
CCN1CCC(CNc2nc(-c3ccc(OC)c4ccccc34)nc(C(Cl)(Cl)Cl)n2)CC1 [Cmpd 279]	66 ng/mL	20 ng/mL	77 ng/mL			
CCN1CCCC(Nc2nc(-c3ccc(OC)c4ccccc34)nc(C(Cl)(Cl)Cl)n2)C1 (stereo not drawn) [Cmpd 280]	138 ng/mL	76 ng/mL	193 ng/mL			
COc1ccc(-c2nc(N3CCCNCC3)nc(C(Cl)(Cl)Cl)n2)c2ccccc12 [Cmpd 281]	148 ng/mL	66 ng/mL	205 ng/mL			
CC(C)(N)CNc1nc(-c2ccc(Cl)cc2)nc(C(Cl)(Cl)Cl)n1 [Cmpd 284]	12 ng/mL	3 ng/mL	18 ng/mL			
CCN(CC)CCNc1nc(-c2ccc(Cl)cc2)nc(C(Cl)(Cl)Cl)n1 [Cmpd 286]	5 ng/mL	2 ng/mL	10 ng/mL			
CN1CCCN(c2nc(-c3ccc(Cl)cc3)nc(C(Cl)(Cl)Cl)n2)CC1 [Cmpd 287]	143 ng/mL	60 ng/mL	232 ng/mL			
COc1ccccc1Cc1nc(NCC(C)(C)N)nc(C(Cl)(Cl)Cl)n1 [Cmpd 292]	77 ng/mL	34 ng/mL	103 ng/mL			
CCN1CCC(CNc2nc(Cc3ccccc3OC)nc(C(Cl)(Cl)Cl)n2)CC1 [Cmpd 293]	48 ng/mL	13 ng/mL	70 ng/mL			
CN1CCCC1CCNc1nc(Nc2ccc(OC(F)(F)F)cc2)nc(C(Cl)(Cl)Cl)n1 (stereo not drawn) [Cmpd 295]	10 ng/mL	10 ng/mL	23 ng/mL			
CC(C)(N)CNc1nc(Nc2ccc(OC(F)(F)F)cc2)nc(C(Cl)(Cl)Cl)n1 [Cmpd 296]	302 ng/mL	318 ng/mL	460 ng/mL			
Cc1ccc(-c2ccccc2-c2nc(NCc3ccncc3)nc(C(Cl)(Cl)Cl)n2)cc1 [Cmpd 299]	195 ng/mL	148 ng/mL	311 ng/mL			
OCCN1CCN(c2nc(Nc3ccc(OC(F)(F)F)cc3)nc(C(Cl)(Cl)Cl)n2)CC1 [Cmpd 302]	166 ng/mL	107 ng/mL	299 ng/mL			
NC1(CNc2nc(Nc3ccc(OC(F)(F)F)cc3)nc(C(Cl)(Cl)Cl)n2)CCOCC1 [Cmpd 303]	43 ng/mL	61 ng/mL	65 ng/mL			
OCCN1CCN(c2nc(-c3ccc(Cl)c(Cl)c3)nc(C(Cl)(Cl)Cl)n2)CC1 [Cmpd 304]	80 ng/mL	41 ng/mL	201 ng/mL			
OCCN1CCN(c2nc(-c3ccc4ccccc4c3)nc(C(Cl)(Cl)Cl)n2)CC1 [Cmpd 305]	35 ng/mL	23 ng/mL	68 ng/mL			
OCCN1CCN(c2nc(-c3ccc(-c4ccccc4)cc3)nc(C(Cl)(Cl)Cl)n2)CC1 [Cmpd 308]	52 ng/mL	24 ng/mL	126 ng/mL			
CSc1ccc(-c2nc(N3CCN(CCO)CC3)nc(C(Cl)(Cl)Cl)n2)cc1 [Cmpd 309]	188 ng/mL	122 ng/mL	438 ng/mL			

Structure (SMILES)	D6 (P. falciparum D6)	W2 (P. falciparum W2)	C235 (P. falciparum C235)	D6 (SYBR Green Assay IC50) (P. falciparum D6)	W2 (SYBR Green Assay IC50) (P. falciparum W2)	C235 (SYBR Green Assay IC50) (P. falciparum C235)
NC1(CNc2nc(-c3ccc(C(Cl)(Cl)Cl)cc3)nc(C(Cl)(Cl)Cl)n2)CCOCC1 [Cmpd 311]	81 ng/mL	47 ng/mL	169 ng/mL			
COc1ccc(-c2nc(NCC3(N)CCOCC3)nc(C(Cl)(Cl)Cl)n2)cc1OC [Cmpd 319]	16 ng/mL	10 ng/mL	34 ng/mL			
CSc1ccc(-c2nc(NC3CC(C)(C)NC(C)(C)C3)nc(C(Cl)(Cl)Cl)n2)cc1 [Cmpd 323]	20 ng/mL	17 ng/mL	51 ng/mL			
CC1(C)CC(Nc2nc(-c3ccc(C(Cl)(Cl)Cl)cc3)nc(C(Cl)(Cl)Cl)n2)CC(C)(C)N1 [Cmpd 325]	123 ng/mL	82 ng/mL	269 ng/mL			
NC1(CNc2nc(-c3ccc(Cl)cc3)nc(C(Cl)(Cl)Cl)n2)CCOCC1 [Cmpd 333]	26 ng/mL	15 ng/mL	40 ng/mL			
Clc1cccc(-c2nc(NCCN3CCCC3)nc(C(Cl)(Cl)Cl)n2)c1 [Cmpd 334]	9 ng/mL	2 ng/mL	15 ng/mL			
CCN1CCC(CNc2nc(-c3cccc(Cl)c3)nc(C(Cl)(Cl)Cl)n2)CC1 [Cmpd 339]	34 ng/mL	14 ng/mL	41 ng/mL			
COc1ccc(Nc2nc(NCCC3CCCN3C)nc(C(Cl)(Cl)Cl)n2)cn1 (stereo not drawn) [Cmpd 341]	7 ng/mL	5 ng/mL	10 ng/mL			
CCN(CC)CCNc1nc(Nc2ccc(OC)nc2)nc(C(Cl)(Cl)Cl)n1 [Cmpd 342]	335 ng/mL	149 ng/mL	398 ng/mL			
CCN1CCCC(Nc2nc(Nc3ccc(OC)nc3)nc(C(Cl)(Cl)Cl)n2)C1 (stereo not drawn) [Cmpd 344]	80 ng/mL	34 ng/mL	98 ng/mL			
COc1ccc(Nc2nc(N3CCN(C)CC3)nc(C(Cl)(Cl)Cl)n2)cn1 [Cmpd 345]	267 ng/mL	199 ng/mL	1100 ng/mL			
COc1ncccc1Nc1nc(NCCC2CCCN2C)nc(C(Cl)(Cl)Cl)n1 (stereo not drawn) [Cmpd 346]	62 ng/mL	52 ng/mL	116 ng/mL			
COc1ccc(Nc2nc(NC3CCN(C)CC3)nc(C(Cl)(Cl)Cl)n2)cn1 [Cmpd 349]	124 ng/mL	129 ng/mL	296 ng/mL			
COc1ncccc1Nc1nc(NCCN2CCCC2)nc(C(Cl)(Cl)Cl)n1 [Cmpd 350]	560 ng/mL	467 ng/mL	900 ng/mL			
COc1ncccc1Nc1nc(N2CCN(C)CC2)nc(C(Cl)(Cl)Cl)n1 [Cmpd 353]				0.101 µg/mL	0.08 µg/mL	0.211 µg/mL
CCC(N)(CC)CNc1nc(-c2ccc(F)cc2)nc(C(Cl)(Cl)Cl)n1 [Cmpd 359]				0.045 µg/mL	0.051 µg/mL	0.095 µg/mL
COc1ncccc1Nc1nc(N2CCCNCC2)nc(C(Cl)(Cl)Cl)n1 [Cmpd 378]				0.05 µg/mL	0.059 µg/mL	0.098 µg/mL
COc1ncccc1Nc1nc(N2CCCN(C)CC2)nc(C(Cl)(Cl)Cl)n1 [Cmpd 379]				0.066 µg/mL	0.092 µg/mL	0.159 µg/mL
CN1CCCN(c2nc(-c3ccc(F)cc3)nc(C(Cl)(Cl)Cl)n2)CC1 [Cmpd 384]				0.025 µg/mL	0.029 µg/mL	0.059 µg/mL
CN1CCC(Nc2nc(-c3ccc(F)cc3)nc(C(Cl)(Cl)Cl)n2)CC1 [Cmpd 385]				0.028 µg/mL	0.039 µg/mL	0.057 µg/mL
CCC(N)(CC)CNc1nc(-c2ccc(Cl)c(Cl)c2)nc(C(Cl)(Cl)Cl)n1 [Cmpd 388]				0.132 µg/mL	0.098 µg/mL	0.153 µg/mL
CC(C)(N)CNc1nc(-c2ccc(F)cc2)nc(C(Cl)(Cl)Cl)n1 [Cmpd 389]				0.03 µg/mL	0.013 µg/mL	0.045 µg/mL
